Entries after “also recorded” stand apart in the source; their conditions may differ.
Experiments:
Format in all cases: cell-based, human
Jurkat cells [1] = assay: Apoptosis and necrosis, Annexin V FITC / PI flow cytometry
Experimental: (§1) Apoptosis and necrosis were analyzed by staining the cells with Annexin V FITC (BD Biosciences, Heidelberg, Germany) and propidium iodide (PI) (Sigma Aldrich, St. Louis, USA). Results were assessed by flow cytometry.
(§2) (A) Cells were treated with PDA-66 for up to 72 h and stained with Annexin V FITC and Propidium iodide (PI). Rates of early apoptotic (FITC^+, PI^−) and late apoptotic and necrotic (FITC^+, PI^+) cells were measured by flow cytometry. Significant induction of apoptosis could be observed in all cell lines after 48 h of incubation as well as tendential induction of necrosis at both points of time. […] (B) Induction of apoptosis was confirmed by Western blot. Cells were treated with different concentrations of PDA-66 and total cell lysates (25 μg) were analyzed by Western blot to detect cleavage of Caspase 3, 7 and PARP. GAPDH was used as loading control.
(§3) More specifically, 5×10^5 cells were harvested and washed twice (180 g, 10 min, 4° C.) with PBS. After resuspending the cells in 100 μl of binding buffer (1×) 4 μl of Annexin V FITC were added and incubated for 15 min at room temperature. Following addition of 400 μl binding buffer for a final volume of 500 μl the cells were stained with PI (0.6 μg/ml) immediately before measurement. As controls unstained and single stained cells were included in each experiment. Measurements were performed using FACSCalibur (Becton and Dickinson, Heidelberg, Germany) and data analyses were carried out with CellQuest software (Becton and Dickinson, Heidelberg, Germany).

Molt-4 cells [2] = assay: as above
Experimental: as §1, §2, §3

RS4;11 cells [3] = assay: as above
Experimental: as §1, §2, §3

SEM cells [4] = assay: as above
Experimental: as §1, §2, §3

[5] = system: PI3K/Akt and Wnt/β-catenin pathway in Jurkat cells; assay: Western blot, PI3K/Akt and Wnt/β-catenin pathway
Experimental: (§4) After treatment with PDA-66 and DMSO, respectively, cells were lyzed and protein expression analyzed with Western blot.
(§5) Protein extraction and Western blot was performed as described above. Following polyclonal antibodies were used: rabbit anti-cleaved caspase 3, rabbit anti-caspase 3, rabbit anti-cleaved PARP, rabbit anti-PARP, rabbit anti-cleaved caspase 7, rabbit anti-caspase 7, rabbit anti-pAktThr308, rabbit anti-pAktSer473, rabbit anti-Akt, rabbit anti-β-catenin, rabbit anti-pGSK3βSer9, rabbit anti-GSK3β, rabbit anti-p4EBP-1Ser65 and rabbit anti-4EBP-1 (all Cell Signaling Frankfurt/Main, Germany). Blots were incubated with mouse anti-GAPDH antibody (Invitrogen, Carlsbad, USA) as loading control.

[6] = system: PI3K/Akt and Wnt/β-catenin pathway in RS4;11 cells; assay: Western blot, PI3K/Akt and Wnt/β-catenin pathway; conditions: incubation of 4 and 24 h
Experimental: as §4, §5

[7] = system: PI3K/Akt and Wnt/β-catenin pathway in SEM cells; assay: Western blot, PI3K/Akt and Wnt/β-catenin pathway
Experimental: as §4, §5

[8] = system: PI3K/Akt and Wnt/β-catenin pathway in Molt-4 cells; assay: Western blot, PI3K/Akt and Wnt/β-catenin pathway; conditions: incubation of 4 and 24 h
Experimental: as §4, §5

Jurkat cells [9] = assay: Cell cycle analysis, propidium iodide staining, flow cytometry; conditions: 1 μM PDA-66, mean±SD
Experimental: (§6) After treatment cells were harvested and washed twice in PBS. Cells were fixed with 70% ethanol and incubated with 1 mg/ml Ribonuclease A (Sigma-Aldrich, St. Louis, USA) for 30 min at 37° C. After washing the cells twice in PBS, they were stained with PI (50 μg/ml) and DNA content was determined by flow cytometry. All cell lines were incubated with PDA-66 and cell cycle distribution was determined using Propidium iodide staining.
(§7) The treatment with PDA-66 influenced the four cell lines differently. […] G2 arrest could be detected in RS4;11 and Molt-4 cells after 48 h of treatment. Treatment of Jurkat cells induced a decrease of cells in G0/G1 phase in favor of cells in S phase.

Molt-4 cells [10] = assay: as above
Experimental: as §6, §7

RS4;11 cells [11] = assay: as above
Experimental: as §6, §7

SEM cells [12] = assay: as above
Experimental: as §6, §7

[13] = SEM cells shown exemplarily (FIG. 6A)
[14] = SEM cells, incubation of 4 and 24 h

CC(=O)c1ccc(C2=C(c3c(C)[nH]c4ccccc34)C(=O)N(C)C2=O)cc1 [PDA-66, 3-(4-Acetylphenyl)-1-methyl-4-(2-methyl-1H-indol-3-yl)-1H-pyrrole-2,5-dione]
necrosis (Jurkat cells [1]; 1 μM PDA-66, 48 h): tendential increase
apoptosis (early apoptotic cells, FITC+, PI−) (Jurkat cells [1]; 1 μM PDA-66, 48 h, mean±SD): 8.3±1.9%
apoptosis (early apoptotic cells, FITC+, PI−) (Jurkat cells [1]; 1 μM PDA-66, 72 h, mean±SD): 6.1±0.7%
necrosis rate (late apoptotic and necrotic cells, FITC+, PI+) (Jurkat cells [1]; 1 μM PDA-66, 72 h, mean±SD): 28.0±13.4%
necrosis (Molt-4 cells [2]; 1 μM PDA-66, 48 h): tendential increase
apoptosis (early apoptotic cells, FITC+, PI−) (Molt-4 cells [2]; 1 μM PDA-66, 48 h, mean±SD): 16.3±5.1%
apoptosis (early apoptotic cells, FITC+, PI−) (Molt-4 cells [2]; 1 μM PDA-66, 72 h, mean±SD): 20.1±6.6%
necrosis rate (late apoptotic and necrotic cells, FITC+, PI+) (Molt-4 cells [2]; 1 μM PDA-66, 72 h, mean±SD): 46.7±15.6%
necrosis (RS4;11 cells [3]; 1 μM PDA-66, 48 h): tendential increase
apoptosis (early apoptotic cells, FITC+, PI−) (RS4;11 cells [3]; 1 μM PDA-66, 48 h, mean±SD): 7.4±1.1%
apoptosis (early apoptotic cells, FITC+, PI−) (RS4;11 cells [3]; 1 μM PDA-66, 72 h, mean±SD): 6.4±3.6%
necrosis rate (late apoptotic and necrotic cells, FITC+, PI+) (RS4;11 cells [3]; 1 μM PDA-66, 72 h, mean±SD): 26.5±10.2%
necrosis (SEM cells [4]; 1 μM PDA-66, 48 h): tendential increase
apoptosis (early apoptotic cells, FITC+, PI−) (SEM cells [4]; 1 μM PDA-66, 48 h, mean±SD): 10.5±1.3%
apoptosis (early apoptotic cells, FITC+, PI−) (SEM cells [4]; 1 μM PDA-66, 72 h, mean±SD): 5.6±1.6%
necrosis rate (late apoptotic and necrotic cells, FITC+, PI+) (SEM cells [4]; 1 μM PDA-66, 72 h, mean±SD): 27.8±5.81%
expression of p4EBP-1Ser65 ([5]; incubation of 4 and 24 h): decrease
expression of total 4EBP-1 ([5]; incubation of 4 and 24 h): decrease
pAktSer473 ([5]; incubation of 24 h): not confirmed by a rise
pAktThr308 ([5]; incubation of 24 h): increase
expression of p4EBP-1Ser65 [6]: decrease
expression of total 4EBP-1 [6]: decrease
expression of total Akt [7, 13]: no influence
expression of total GSK3β [7, 13]: no influence
expression of β-catenin [7, 13]: no influence
pGSK3βSer9 ([7]; SEM cells, after 4 h): small decrease; also recorded: slight decrease
expression of p4EBP-1Ser65 [7, 14]: decrease
expression of total 4EBP-1 [7, 14]: decrease
pAktSer473 ([7]; SEM cells, incubation of 24 h): not confirmed by an increase; also recorded: not confirmed by a rise
pAktThr308 ([7]; SEM cells, incubation of 24 h): slight increase
expression of p4EBP-1Ser65 [8]: increased expression; also recorded: increase
amount of cells in G0/G1 phase (Jurkat cells [9]): 47.3±4.3%
amount of cells in S phase (Jurkat cells [9]): 20.0±1.1%
amount of cells in G0/G1 phase (Molt-4 cells [10]; 1 μM PDA-66, 48 h, mean±SD): 45.0±7.3%
amount of cells in G2 phase (Molt-4 cells [10]; 1 μM PDA-66, 48 h, mean±SD): 41.0±5.8%
cells in G0/G1 phase (Molt-4 cells [10]; smaller dosages than 1 μM): significant increase
amount of cells in G0/G1 phase (RS4;11 cells [11]; 1 μM PDA-66, 48 h, mean±SD): 47.3±2.7%
amount of cells in G2 phase (RS4;11 cells [11]; 1 μM PDA-66, 48 h, mean±SD): 42.1±4.4%
cells in G0/G1 phase (RS4;11 cells [11]; smaller dosages than 1 μM): significant increase
amount of cells in G0/G1 (SEM cells [12]; 0.5 μM PDA-66, 48 h, mean±SD): 69.3±2.7%
effect on cell cycle (SEM cells [12]; 1 μM PDA-66, 48 h): did not affect the cell cycle significantly
